Experimental data reported in US7648976B2, “17-allylamino-17-demethoxygeldanamycin polymorphs and formulations” (Bristol-Myers Squibb Company, priority 2005, dated 2010).
“Also recorded” adds a separate entry of the source.

Key:
[1] = Polymorph stability to heat and humidity (VT-XRPD, DSC); format: physicochemical; conditions: for polymorph conversion upon heating: VT-XRPD and/or DSC
Text: 17-AAG is polymorphic and exists in multiple forms, many of which are solvates. We have generated many polymorphs using a variety of solvents and crystallization conditions. The polymorphs were characterized by techniques such as XRPD, DSC, infrared spectroscopy, gravimetric vapor sorption (GVS), ^1H-NMR, polarized light microscopy (PLM), and thermogravimetric analysis (TGA). We grouped the polymorphs according to similarities in XRPD data, with summary descriptions provided below. Polymorphs that are solvated are referred to by group and solvate names, as in “Polymorph A (DMF solvate)” or “the DMF solvate of Polymorph A”. • Group A The N,N-dimethylformamide (DMF), ethyl acetate (EtOAc), and methyl isobutyl ketone (MIBK) solvates of Polymorph A all have XRPD peaks at about 5.6, 7.0, 9.2, 11.2, 16.4, and 17.9 degrees 2θ (the first four being its lowest angle peaks). […] It has characteristic XRPD peaks at about 6.4, 8.3, 9.6, 13.3, 14.9, 15.7, 19.1, and 20.8 degrees 2θ. […] Typically, this polymorph group is prepared using high boiling solvents. After melting, these polymorphs exist in a molten state until decomposition at about 220° C.

[2] = Effect of 17-AAG starting polymorph on formulation properties; format: physicochemical; conditions: non-sterile formulation made by procedure of Example 7 from the named polymorph
Method: Particle size distribution was determined by dynamic light scattering with a Nanotract 250 particle size analyzer (Microtrac Inc., Montgomeryville, Pa.). The Nanotrac 250 settings were configured for measuring the PSD (volume distribution) of “Irregular” Shaped particles of “Absorbing” Transparency in a fluid with characteristics of water (Refractive Index: 1.333, Viscosity at 20° C.: […], Viscosity at 30° C.: 1.002 cP). A background signal was measured using 5% Dextrose for Injection (D5W). Then, the nanoparticle formulation was diluted 10 to 20-fold into D5W and mixed well. The PSD of the diluted sample was measured as the average of five replicate 5-minute analyses and reported in histogram format as a function of particle size. While the PSD reflects the range and frequency of particle sizes, other characteristics of the PSD were used for quantitation. The D50 is the volume percentile corresponding to the particle size larger than 50% of the total particle volume (i.e. the median particle size). The D90 is the volume percentile corresponding to the particle size larger than 90% of the total particle volume and is a measure of the largest particles in the dispersion. The particle size distribution measured by dynamic light scattering techniques was supplemented with SEM images, acquired by techniques established in the art. The particle sizes determined via the SEM images were in general agreement with those determined by light scattering.
17-AAG (purified Polymorph C, 1.25 g) was mixed with WFI (3.62 g) and a solution of polysorbate 80 (2.5 g of a 10 weight % solution in WFI), an aqueous suspension of soybean phosphatidylcholine (0.63 g of a 10 weight % suspension in WFI), and a solution of sucrose (10 g of a 25 weight % solution in WFI). The mixture was loaded into the reservoir of a Microfluidics Model 110S microfluidizer containing 7 g WFI set up as described in the previous example and processed under the same conditions. This procedure yielded a formulation having a 17-AAG concentration of approximately 50 mg/mL in an aqueous medium having approximately 1.0 weight % polysorbate 80, 0.25 weight % soy phosphatidylcholine, and 10 weight % sucrose, with a 17-AAG particle size distribution of below 1 micron with median particle size of 300 nm volume distribution.
Non-sterile formulations of 17-AAG were made with other polymorphs using the procedure of Example 7 and compared against formulations made with purified Polymorph C.

Q: Which “polymorph conversion upon heating” value [1] does the source give for `C=CCNC1=C2C[C@@H](C)C[C@H](OC)[C@H](O)[C@@H](C)/C=C(\C)[C@H](OC(N)=O)[C@@H](OC)/C=C\C=C(/C)C(=O)NC(=CC1=O)C2=O` [Polymorph A, 17-allylamino-17-demethoxygeldanamycin] here?
A: converted to the more stable Polymorph C

Q: For `C=CCNC1=C2C[C@@H](C)C[C@H](OC)[C@H](O)[C@@H](C)/C=C(\C)[C@H](OC(N)=O)[C@@H](OC)/C=C\C=C(/C)C(=O)NC(=CC1=O)C2=O` [Polymorph D (dichloromethane solvate), 17-allylamino-17-demethoxygeldanamycin], which “polymorph conversion upon heating” value [1] is on record?
A: converts to Polymorph C

Q: Which results are given for `C=CCNC1=C2C[C@@H](C)C[C@H](OC)[C@H](O)[C@@H](C)/C=C(\C)[C@H](OC(N)=O)[C@@H](OC)/C=C\C=C(/C)C(=O)NC(=CC1=O)C2=O` [Polymorph G, 17-allylamino-17-demethoxygeldanamycin]?
A: Consistency [2]: Water-like; D50 [2]: 0.36 μm; polymorph conversion upon heating [1]: Heating converts Polymorph G to Polymorph C

Q: For `C=CCNC1=C2C[C@@H](C)C[C@H](OC)[C@H](O)[C@@H](C)/C=C(\C)[C@H](OC(N)=O)[C@@H](OC)/C=C\C=C(/C)C(=O)NC(=CC1=O)C2=O` [Polymorph B, 17-allylamino-17-demethoxygeldanamycin], which Consistency ([2]; listed as B (1st run)) is on record?
A: Highly viscous

Q: And the D50 ([2]; listed as B (1st run))?
A: 1.8 μm

Q: And the Consistency ([2]; listed as B (2nd run))?
A: Highly viscous

Q: What about the D50 ([2]; listed as B (2nd run)) of the same molecule?
A: 2.0 μm

Q: And the “polymorph conversion upon heating” value [1]?
A: converted to Polymorph C

Q: For `C=CCNC1=C2C[C@@H](C)C[C@H](OC)[C@H](O)[C@@H](C)/C=C(\C)[C@H](OC(N)=O)[C@@H](OC)/C=C\C=C(/C)C(=O)NC(=CC1=O)C2=O` [Polymorph E, 17-allylamino-17-demethoxygeldanamycin], which “polymorph conversion under humidity” value ([1]; 40° C. and 70% relative humidity (RH)) is on record?
A: conversion to Polymorph C is observed

Q: Which Consistency ([2]; listed as Amorphous (1st run)) does the source give for `C=CCNC1=C2C[C@@H](C)C[C@H](OC)[C@H](O)[C@@H](C)/C=C(\C)[C@H](OC(N)=O)[C@@H](OC)/C=C\C=C(/C)C(=O)NC(=CC1=O)C2=O` [Amorphous, 17-allylamino-17-demethoxygeldanamycin] here?
A: Paste-like

Q: And the Remarks ([2]; listed as Amorphous (1st run))?
A: Does not form stable

Q: And the Consistency ([2]; listed as Amorphous (2nd run))?
A: Paste-like

Q: What about the Remarks ([2]; listed as Amorphous (2nd run)) of the same molecule?
A: Does not form stable

Q: Which Consistency [2] does the source give for `C=CCNC1=C2C[C@@H](C)C[C@H](OC)[C@H](O)[C@@H](C)/C=C(\C)[C@H](OC(N)=O)[C@@H](OC)/C=C\C=C(/C)C(=O)NC(=CC1=O)C2=O` [Polymorph C, 17-allylamino-17-demethoxygeldanamycin] here?
A: Water-like

Q: What about the D50 [2] of the same molecule?
A: 0.28 μm

Q: And the Remarks [2]?
A: Stable nanoparticle

Q: And the “polymorph conversion upon heating” value [1]?
A: does not convert to any other polymorph upon heating

Q: What about the “relative stability among 17-AAG polymorphs” value ([1]; moisture/humidity and heat) of the same molecule?
A: the most stable to moisture and heat; also recorded: the most stable to heat and humidity
